Reference: the kinase profiling compilation of Christmann-Franck et al. (2016)

Columns and labels:
Experiment in all cases: KINOMEscan competition binding
Settings in all cases: compound 0.1 µM
[1] = system: ABL1 (human), P00519 [E255K]
[2] = biological target: ACVR1 (human) (UniProt Q04771)
[3] = biological target: ACVR2A (human) (UniProt P27037)
[4] = biological target: CAMK1D (human) (UniProt Q8IU85)
[5] = biological target: CAMK2B (human) (UniProt Q13554)
[6] = biological target: CAMK2G (human) (UniProt Q13555)
[7] = biological target: CAMK4 (human) (UniProt Q16566)
CAMK4 (human), sequence (Q16566 whole entry, looked up): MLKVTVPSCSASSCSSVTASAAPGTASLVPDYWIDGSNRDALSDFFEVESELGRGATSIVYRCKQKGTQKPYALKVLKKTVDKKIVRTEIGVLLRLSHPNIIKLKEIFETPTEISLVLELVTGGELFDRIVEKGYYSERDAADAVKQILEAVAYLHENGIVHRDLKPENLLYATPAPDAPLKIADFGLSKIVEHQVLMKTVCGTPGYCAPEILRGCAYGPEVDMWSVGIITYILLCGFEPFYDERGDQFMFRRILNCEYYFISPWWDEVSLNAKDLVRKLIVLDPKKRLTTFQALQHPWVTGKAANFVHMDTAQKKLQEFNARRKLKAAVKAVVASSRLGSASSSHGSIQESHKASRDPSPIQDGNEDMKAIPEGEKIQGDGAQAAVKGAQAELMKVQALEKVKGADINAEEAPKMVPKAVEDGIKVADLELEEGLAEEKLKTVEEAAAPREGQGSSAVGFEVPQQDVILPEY

[8] = biological target: CDK18 (human) (UniProt Q07002)
[9] = biological target: CDK5 (human) (UniProt Q00535)
CDK5 (human), sequence (Q00535 whole entry, looked up): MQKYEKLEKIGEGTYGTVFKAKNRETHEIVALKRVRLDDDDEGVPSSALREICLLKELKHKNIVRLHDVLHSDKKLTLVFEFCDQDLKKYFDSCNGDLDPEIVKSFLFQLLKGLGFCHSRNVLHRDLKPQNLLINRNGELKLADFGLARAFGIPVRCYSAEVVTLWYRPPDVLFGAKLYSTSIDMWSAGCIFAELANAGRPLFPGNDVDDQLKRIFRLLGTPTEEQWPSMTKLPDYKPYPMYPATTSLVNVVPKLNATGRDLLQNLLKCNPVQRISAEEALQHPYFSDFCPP

[10] = biological target: CDKL1 (human) (UniProt Q00532)
[11] = biological target: CSNK1G2 (human) (UniProt P78368)
[12] = system: EGFR (human), P00533 [752-759 del]
[13] = biological target: EPHB3 (human) (UniProt P54753)
[14] = biological target: FER (human) (UniProt P16591)
[15] = biological target: FGFR2 (human) (UniProt P21802)
[16] = biological target: IKBKB (human) (UniProt O14920)
[17] = biological target: LRRK2 (human) (UniProt Q5S007)
[18] = biological target: MAP2K1 (human) (UniProt Q02750)
[19] = biological target: MAP2K5 (human) (UniProt Q13163)
MAP2K5 (human), sequence (Q13163 whole entry, looked up): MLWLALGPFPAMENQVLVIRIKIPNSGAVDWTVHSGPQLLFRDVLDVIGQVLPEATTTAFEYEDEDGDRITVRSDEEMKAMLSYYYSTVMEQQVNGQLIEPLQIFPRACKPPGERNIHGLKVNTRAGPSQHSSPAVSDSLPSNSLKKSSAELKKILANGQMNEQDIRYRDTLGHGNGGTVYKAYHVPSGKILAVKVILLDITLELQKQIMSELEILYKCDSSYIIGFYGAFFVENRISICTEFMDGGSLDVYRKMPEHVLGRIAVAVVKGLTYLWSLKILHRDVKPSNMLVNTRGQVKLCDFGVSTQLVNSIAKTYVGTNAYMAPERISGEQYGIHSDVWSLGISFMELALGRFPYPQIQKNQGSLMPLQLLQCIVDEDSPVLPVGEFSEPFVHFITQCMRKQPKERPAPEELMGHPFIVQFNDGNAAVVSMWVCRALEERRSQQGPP

[20] = biological target: MELK (human) (UniProt Q14680)
[21] = biological target: NEK9 (human) (UniProt Q8TD19)
NEK9 (human), sequence (Q8TD19 whole entry, looked up): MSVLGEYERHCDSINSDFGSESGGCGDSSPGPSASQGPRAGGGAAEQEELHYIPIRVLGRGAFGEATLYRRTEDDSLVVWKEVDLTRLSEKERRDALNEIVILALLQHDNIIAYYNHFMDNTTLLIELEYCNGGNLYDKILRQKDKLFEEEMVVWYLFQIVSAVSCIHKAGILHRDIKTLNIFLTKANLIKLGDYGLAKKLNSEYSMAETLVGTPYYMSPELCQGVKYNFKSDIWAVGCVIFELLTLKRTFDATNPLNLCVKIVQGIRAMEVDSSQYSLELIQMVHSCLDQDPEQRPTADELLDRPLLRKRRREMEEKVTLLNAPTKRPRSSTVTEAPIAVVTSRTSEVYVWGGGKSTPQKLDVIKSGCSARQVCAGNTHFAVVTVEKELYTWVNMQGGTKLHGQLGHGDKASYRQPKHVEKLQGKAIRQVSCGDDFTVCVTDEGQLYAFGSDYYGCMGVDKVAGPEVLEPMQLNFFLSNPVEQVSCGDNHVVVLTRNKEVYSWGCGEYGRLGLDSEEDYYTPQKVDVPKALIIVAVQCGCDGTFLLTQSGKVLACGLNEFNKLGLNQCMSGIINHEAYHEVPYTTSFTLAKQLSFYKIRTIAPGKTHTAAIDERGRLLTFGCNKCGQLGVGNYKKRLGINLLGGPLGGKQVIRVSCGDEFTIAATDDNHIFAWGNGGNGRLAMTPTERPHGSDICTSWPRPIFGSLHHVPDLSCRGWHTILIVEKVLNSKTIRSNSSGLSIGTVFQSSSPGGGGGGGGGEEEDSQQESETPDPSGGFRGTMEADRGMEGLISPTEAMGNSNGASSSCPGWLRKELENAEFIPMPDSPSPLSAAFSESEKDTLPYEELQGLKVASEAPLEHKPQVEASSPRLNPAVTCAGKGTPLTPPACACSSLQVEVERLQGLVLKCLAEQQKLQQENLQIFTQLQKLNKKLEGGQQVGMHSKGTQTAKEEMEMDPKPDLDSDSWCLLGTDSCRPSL

[22] = biological target: PDGFRA (human) (UniProt P16234)
[23] = system: PIK3CA (human), P42336 [C420R]
[24] = biological target: PIK3CG (human) (UniProt P48736)
[25] = biological target: PIP5K1C (human) (UniProt O60331)
[26] = biological target: PKN2 (human) (UniProt Q16513)
PKN2 (human), sequence (Q16513 whole entry, looked up): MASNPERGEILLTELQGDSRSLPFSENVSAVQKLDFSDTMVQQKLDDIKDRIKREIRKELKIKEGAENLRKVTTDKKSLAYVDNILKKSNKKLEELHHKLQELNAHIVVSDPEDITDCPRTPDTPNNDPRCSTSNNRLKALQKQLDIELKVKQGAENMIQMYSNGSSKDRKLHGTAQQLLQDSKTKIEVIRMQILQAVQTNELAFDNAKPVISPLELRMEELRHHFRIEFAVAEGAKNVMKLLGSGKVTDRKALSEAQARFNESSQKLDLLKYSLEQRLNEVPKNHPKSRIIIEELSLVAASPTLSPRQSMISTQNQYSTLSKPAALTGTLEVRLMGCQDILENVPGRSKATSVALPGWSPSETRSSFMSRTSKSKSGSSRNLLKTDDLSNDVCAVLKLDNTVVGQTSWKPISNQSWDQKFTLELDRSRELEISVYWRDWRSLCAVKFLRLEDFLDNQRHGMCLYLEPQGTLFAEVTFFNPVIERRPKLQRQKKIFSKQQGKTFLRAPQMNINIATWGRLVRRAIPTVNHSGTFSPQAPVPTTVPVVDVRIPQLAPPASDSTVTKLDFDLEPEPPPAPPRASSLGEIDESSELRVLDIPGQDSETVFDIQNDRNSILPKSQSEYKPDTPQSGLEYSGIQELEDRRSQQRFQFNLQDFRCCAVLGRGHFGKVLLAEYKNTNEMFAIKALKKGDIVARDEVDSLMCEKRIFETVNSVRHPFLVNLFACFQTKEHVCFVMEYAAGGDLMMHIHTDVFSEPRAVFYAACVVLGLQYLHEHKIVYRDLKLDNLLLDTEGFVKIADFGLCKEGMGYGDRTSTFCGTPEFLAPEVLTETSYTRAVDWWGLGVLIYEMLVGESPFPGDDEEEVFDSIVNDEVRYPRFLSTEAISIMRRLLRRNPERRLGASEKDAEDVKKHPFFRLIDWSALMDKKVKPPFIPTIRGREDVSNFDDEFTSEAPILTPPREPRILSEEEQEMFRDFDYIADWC

[27] = biological target: PRKCE (human) (UniProt Q02156)
PRKCE (human), sequence (Q02156 whole entry, looked up): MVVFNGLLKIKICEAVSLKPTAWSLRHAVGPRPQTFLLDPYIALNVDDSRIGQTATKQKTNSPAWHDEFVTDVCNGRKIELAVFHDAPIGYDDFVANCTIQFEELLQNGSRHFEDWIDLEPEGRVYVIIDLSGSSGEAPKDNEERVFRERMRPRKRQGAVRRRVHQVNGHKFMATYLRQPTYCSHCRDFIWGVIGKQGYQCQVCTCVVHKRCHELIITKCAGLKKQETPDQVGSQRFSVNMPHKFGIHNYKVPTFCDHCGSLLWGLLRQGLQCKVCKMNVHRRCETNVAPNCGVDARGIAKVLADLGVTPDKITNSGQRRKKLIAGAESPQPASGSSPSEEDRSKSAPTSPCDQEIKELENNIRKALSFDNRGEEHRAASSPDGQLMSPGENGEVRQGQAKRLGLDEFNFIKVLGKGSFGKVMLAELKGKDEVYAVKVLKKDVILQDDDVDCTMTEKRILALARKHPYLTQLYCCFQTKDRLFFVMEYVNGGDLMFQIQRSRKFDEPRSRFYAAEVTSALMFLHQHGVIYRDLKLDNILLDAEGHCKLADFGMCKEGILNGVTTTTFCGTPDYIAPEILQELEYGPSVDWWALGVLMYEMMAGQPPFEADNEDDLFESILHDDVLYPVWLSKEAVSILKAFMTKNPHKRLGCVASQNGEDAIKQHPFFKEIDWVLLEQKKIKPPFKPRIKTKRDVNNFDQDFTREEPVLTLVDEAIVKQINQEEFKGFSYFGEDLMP

[28] = biological target: PRKG1 (human) (UniProt Q13976)
[29] = biological target: PTK2B (human) (UniProt Q14289)
[30] = biological target: RIPK1 (human) (UniProt Q13546)
[31] = biological target: RIPK2 (human) (UniProt O43353)
[32] = biological target: RPS6KA5 KD1 (human) (UniProt O75582)
[33] = biological target: SRMS (human) (UniProt Q9H3Y6)
[34] = biological target: STK16 (human) (UniProt O75716)
[35] = biological target: STK32A (human) (UniProt Q8WU08)
[36] = biological target: TGFBR1 (human) (UniProt P36897)
[37] = biological target: TIE1 (human) (UniProt P35590)
TIE1 (human), sequence (P35590 whole entry, looked up): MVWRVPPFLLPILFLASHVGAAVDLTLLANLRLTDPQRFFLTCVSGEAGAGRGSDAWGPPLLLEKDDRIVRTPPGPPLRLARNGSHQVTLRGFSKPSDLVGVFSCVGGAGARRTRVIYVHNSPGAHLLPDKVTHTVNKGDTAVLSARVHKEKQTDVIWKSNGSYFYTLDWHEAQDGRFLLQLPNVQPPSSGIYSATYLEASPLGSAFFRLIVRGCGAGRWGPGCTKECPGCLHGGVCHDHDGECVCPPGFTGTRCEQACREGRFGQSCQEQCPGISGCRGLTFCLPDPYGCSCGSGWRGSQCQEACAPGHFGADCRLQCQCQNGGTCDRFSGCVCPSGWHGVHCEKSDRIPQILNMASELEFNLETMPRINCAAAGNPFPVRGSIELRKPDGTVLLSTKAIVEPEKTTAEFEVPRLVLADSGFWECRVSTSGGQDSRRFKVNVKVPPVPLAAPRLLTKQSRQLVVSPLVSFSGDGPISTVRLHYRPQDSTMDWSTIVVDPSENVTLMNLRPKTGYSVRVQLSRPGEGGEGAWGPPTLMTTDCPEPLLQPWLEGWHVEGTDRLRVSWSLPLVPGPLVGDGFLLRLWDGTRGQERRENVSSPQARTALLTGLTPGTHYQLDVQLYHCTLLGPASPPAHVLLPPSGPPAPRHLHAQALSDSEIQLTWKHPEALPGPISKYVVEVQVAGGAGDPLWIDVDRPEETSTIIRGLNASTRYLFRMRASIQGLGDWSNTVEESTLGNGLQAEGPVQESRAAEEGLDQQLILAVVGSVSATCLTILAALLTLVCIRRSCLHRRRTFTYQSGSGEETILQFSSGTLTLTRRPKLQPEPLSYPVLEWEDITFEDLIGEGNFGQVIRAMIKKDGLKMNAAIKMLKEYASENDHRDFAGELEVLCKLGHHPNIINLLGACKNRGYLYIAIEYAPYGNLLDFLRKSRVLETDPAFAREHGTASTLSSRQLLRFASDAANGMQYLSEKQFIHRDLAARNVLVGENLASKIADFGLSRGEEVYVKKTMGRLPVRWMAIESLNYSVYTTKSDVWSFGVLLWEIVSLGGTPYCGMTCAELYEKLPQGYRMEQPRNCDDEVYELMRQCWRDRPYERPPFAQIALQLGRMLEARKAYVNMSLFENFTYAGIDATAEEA

[38] = biological target: TTK (human) (UniProt P33981)
[39] = biological target: TYK2 JH1 catalytic (human) (UniProt P29597)
[40] = biological target: YSK4 (human) (UniProt Q56UN5)

CCc1ccc(C(=O)Nc2cc(CN3CCN(C)CC3)cc(C(F)(F)F)c2)cc1C#Cc1cnc2ccnn2c1
kinase still bound, per cent of control [1]: 100%
kinase still bound, per cent of control [2]: 84%
kinase still bound, per cent of control [3]: 97%
kinase still bound, per cent of control [4]: 84%
kinase still bound, per cent of control [5]: 72%
kinase still bound, per cent of control [6]: 79%
kinase still bound, per cent of control [7]: 100%
kinase still bound, per cent of control [8]: 100%
kinase still bound, per cent of control [9]: 100%
kinase still bound, per cent of control [10]: 100%
kinase still bound, per cent of control [11]: 100%
kinase still bound, per cent of control [12]: 100%
kinase still bound, per cent of control [13]: 94%
kinase still bound, per cent of control [14]: 70%
kinase still bound, per cent of control [15]: 100%
kinase still bound, per cent of control [16]: 97%
kinase still bound, per cent of control [17]: 86%
kinase still bound, per cent of control [18]: 100%
kinase still bound, per cent of control [19]: 100%
kinase still bound, per cent of control [20]: 95%
kinase still bound, per cent of control [21]: 100%
kinase still bound, per cent of control [22]: 79%
kinase still bound, per cent of control [23]: 100%
kinase still bound, per cent of control [24]: 100%
kinase still bound, per cent of control [25]: 96%
kinase still bound, per cent of control [26]: 74%
kinase still bound, per cent of control [27]: 94%
kinase still bound, per cent of control [28]: 99%
kinase still bound, per cent of control [29]: 90%
kinase still bound, per cent of control [30]: 100%
kinase still bound, per cent of control [31]: 56%
kinase still bound, per cent of control [32]: 93%
kinase still bound, per cent of control [33]: 99%
kinase still bound, per cent of control [34]: 71%
kinase still bound, per cent of control [35]: 69%
kinase still bound, per cent of control [36]: 100%
kinase still bound, per cent of control [37]: 51%
kinase still bound, per cent of control [38]: 77%
kinase still bound, per cent of control [39]: 100%
kinase still bound, per cent of control [40]: 100%
